Residue numbers refer to the chain shown, from its start. Read-outs that look alike come from different tables or passages of the source. Marks after values point to notes of the source that are not given here.

Assay [1] addresses T1, S. pneumoniae DHFR (Streptococcus pneumoniae serotype 4, UniProt Q54801, A78V/I100L/K60Q/V77A).
T1 sequence (Q54801 1-168 K60Q/V77A/A78V/I100L): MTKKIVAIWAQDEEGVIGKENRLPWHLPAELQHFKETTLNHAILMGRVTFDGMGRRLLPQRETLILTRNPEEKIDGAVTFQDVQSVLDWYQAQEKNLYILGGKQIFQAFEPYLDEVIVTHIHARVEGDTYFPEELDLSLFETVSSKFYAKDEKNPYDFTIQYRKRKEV
Put plainly: Equilibrium fluorescence quenching titration, spDHFR. The settings on record: read-out: Kd (NADPH), pH 7.0, MTEN buffer. The assay is classed as binding.

The target in assay [2] is T2, Sp9 mutant DHFR (Streptococcus pneumoniae serotype 4, UniProt Q54801, A149T/E133A/H26Y/I100V/Q81H/Q91S).
T2 sequence (Q54801 1-168 H26Y/Q81H/Q91S/I100V/E133A/A149T): T1 sequence (Q54801 1-168 K60Q/V77A/A78V/I100L) with H26Y, Q60K, A77V, V78A, Q81H, Q91S, L100V, E133A, A149T
Put plainly: Equilibrium fluorescence quenching titration, Sp9. The class given is binding. The settings on record: read-out: Kd (NADPH), pH 7.0, MTEN buffer.

Assay [3] addresses T1, S. pneumoniae DHFR. The assay can be described thus: Stopped-flow binding kinetics. The settings on record: MTEN buffer, 25 °C, relaxation method.
Assay [4] deals with T1, S. pneumoniae DHFR. Conditions: pH 7.0, MTEN buffer, 25 °C.
The target of assay [5] is Sp9 mutant DHFR (Streptococcus pneumoniae serotype 4, UniProt Q54801, A149T/E133A/H26Y/I100V/Q81H/Q91S). Conditions: pH 7.0, MTEN buffer, 25 °C.
A further assay deals with E. coli DHFR (wt). The settings on record: read-out: Kd (NADPH); pH 7.0; cited from earlier work.
The test system of assay [6] is E. coli DHFR. Conditions: cited from earlier work.
Assay [7] deals with E. coli DHFR. Conditions: cited from earlier work. This is another data set of the same source.
A further assay relates to Bacterial DHFRs. The settings on record: cited from earlier work.

Turning to `NC(=O)C1=CN([C@@H]2O[C@H](COP(=O)(O)OP(=O)(O)OC[C@H]3O[C@@H](n4cnc5c(N)ncnc54)[C@H](OP(=O)(O)O)[C@@H]3O)[C@@H](O)[C@H]2O)C=CC1` [NADPH, nicotinamide adenine dinucleotide phosphate (reduced form)], the Kd on S. pneumoniae DHFR [1] was 0.21 ± 0.013 µM; at Sp9 mutant DHFR [2], 0.16 ± 0.058 µM; in the assay with E. coli DHFR (wt), 0.33 µM. The “koff (NADPH)” value at S. pneumoniae DHFR [3] was 18.0 ± 3.2 s⁻¹; with E. coli DHFR [6], 3.5 ^* s^−1. Besides, the “kon (NADPH)” value is listed as 11.9 ± 1.4 μM ^−1s^−1 at S. pneumoniae DHFR [3] and 20.0 ^* μM ^−1s^−1 in the assay with E. coli DHFR [6]. Besides, the figures for the Michaelis-Menten constant (Km) on S. pneumoniae DHFR [4] (read-out: KM (NADPH)), on Sp9 mutant DHFR [5] (read-out: KM (NADPH)) and with E. coli DHFR [7] (read-out: KM (NADPH)) were 15.7 ± 4.6 µM, 0.75 ± 0.3 µM and 4.8 µM, respectively.

Regarding `Nc1nc(=O)c2c([nH]1)NCC(CNc1ccc(C(=O)N[C@@H](CCC(=O)O)C(=O)O)cc1)=N2` [H2F, 7,8-dihydrofolate], the Km is 4.4 ± 0.95 µM on S. pneumoniae DHFR [4] (read-out: KM (H2F)), below 0.63 µM at Sp9 mutant DHFR [5] (read-out: KM (H2F)) and 0.7 µM in the assay on E. coli DHFR [7] (read-out: KM (H2F)).

`COc1cc(Cc2cnc(N)nc2N)cc(OC)c1OC` [Trimethoprim]: the TMP binding with Bacterial DHFRs (bacterial DHFRs) is 0.08 nM. The “tighter binding to bacterial DHFRs than human DHFR” value in the assay on Bacterial DHFRs (bacterial versus human DHFR) is given as 2500 fold.

Values taken from paper PMC3773979 (Biochemistry, 2010).
